Measured values as given in patent US20050009894A1 (Aventis Pharma S.A., priority 2001, published 2005).

Biological target: T1, human KDR enzyme (Homo sapiens, UniProt P35968)
T1 construct: The cytoplasmic domain of human KDR enzyme is cloned in the form of a GST fusion; GST; made in house; host or cells: SF21 insect cells (baculovirus, pFastBac)
Assay: Phosphorylation of the substrate PLCγ by the enzyme KDR in vitro (flashplate technique)
Assay type: biochemical
Conditions: Table VII, degrees of activity by IC50 range; read-out: Activity
Protocol: The inhibitory effect of the compounds is determined in a test of phosphorylation of a substrate by the enzyme KDR in vitro by the flasplate technique (96-well plate, NEN). The cytoplasmic domain of human KDR enzyme is cloned in the form of a GST fusion into the baculovirus expression vector pFastBac. The protein is expressed in the SF21 cells and purified to about 60% homogeneity.
The kinase activity of KDR is measured in 20 mM MOPS, 10 mM MgCl2, 10 mM MnCl2, 1 mM DTT, 2.5 mM EGTA, 10 mM β-glycerophosphate, pH 7.2 in the presence of 10 mM MgCl2, 100 μM Na3VO4, 1 mM NaF. 10 μl of the compound are added to 70 μl of kinase buffer containing 100 ng of KDR enzyme at 4° C. The reaction is initiated by adding 20 μl of solution containing 2 μg of substrate (fragment SH2-SH3 of PLCγ expressed in the form of a GST fusion protein), 2 μCi γ33P[ATP] and 2 μM cold ATP. After incubating for 1 h at 37° C., the reaction is quenched by adding 1 volume (100 μl) of 200 mM EDTA. The incubation buffer is removed and the wells are washed three times with 300 μl of PBS. The radioactivity is measured in each well using a Top Count NXT instrument (Packard).
Background noise is determined by measuring the radio-activity in wells in quadruplet containing radioactive ATP and the substrate alone.
An activity control is measured in wells in quadruplet containing all the reagents (γ33P-[ATP], KDR and the substrate PLCγ) and in the absence of compound.
The inhibition of the KDR activity with the compound of the invention is expressed as a percentage of inhibition of the control activity determined in the absence of compound.
The compound SU5614 (Calbiochem) (1 μM) is included in each plate as inhibition control.
The IC50 values for the compounds are calculated by plotting the dose-response curves. The IC50 corresponds to the concentration of compound that induces a 50% inhibition of the kinase activity.

T1 sequence (P35968 786-1356 limits assumed): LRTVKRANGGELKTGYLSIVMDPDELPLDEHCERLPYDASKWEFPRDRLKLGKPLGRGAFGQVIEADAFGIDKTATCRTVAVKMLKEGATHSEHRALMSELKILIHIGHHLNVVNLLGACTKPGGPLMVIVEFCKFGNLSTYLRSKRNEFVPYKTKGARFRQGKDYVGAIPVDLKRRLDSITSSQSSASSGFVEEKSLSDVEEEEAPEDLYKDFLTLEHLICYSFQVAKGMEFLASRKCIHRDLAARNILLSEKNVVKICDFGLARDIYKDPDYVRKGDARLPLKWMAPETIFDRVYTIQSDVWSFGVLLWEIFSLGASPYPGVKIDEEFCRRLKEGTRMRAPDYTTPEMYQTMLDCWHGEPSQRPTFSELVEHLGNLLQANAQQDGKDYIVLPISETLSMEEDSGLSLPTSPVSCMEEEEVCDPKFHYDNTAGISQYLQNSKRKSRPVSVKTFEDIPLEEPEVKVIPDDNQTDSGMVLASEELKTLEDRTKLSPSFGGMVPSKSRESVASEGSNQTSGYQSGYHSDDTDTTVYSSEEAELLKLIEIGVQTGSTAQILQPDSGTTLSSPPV

Row | IC50 [µM] | SMILES
1 | > 3 | O=C(COc1cc(-c2nc3ccccc3[nH]2)[nH]n1)c1ccc(OC(F)(F)F)cc1 [Example 210, 2-[5-(1H-Benzoimidazol-2-yl)-1H-pyrazol-3-yloxy]-1-(4-trifluoromethoxy-phenyl)-ethanone]
2 | 0.3 to 3 | O=C(NCc1ccc(F)cc1)c1ccc2[nH]c(-c3n[nH]c4ccccc34)nc2c1 [Example 170, 2-(1H-Indazol-3-yl)-1H-benzoimidazole-5-carboxylic acid 4-fluoro-benzylamide]
3 | > 3 | C=C(C)COc1cc(-c2nc3ccccc3[nH]2)[nH]n1 [Example 183, 2-[5-(2-Methyl-allyloxy)-2H-pyrazol-3-yl]-1H-benzoimidazole]
4 | > 3 | N#Cc1ccc(C(=O)COc2cc(-c3nc4ccccc4[nH]3)[nH]n2)cc1 [Example 208, 4-{2-[5-(1H-Benzoimi-dazol-2-Yl)-1H-pyrazol-3-yloxy)acetyl}-benzonitrile]
5 | 0.3 to 3 | OCc1ccc(-c2ccc3nc(-c4[nH]nc5ccccc45)[nH]c3c2)cc1 [Example 141, {4-[2-(2H-Indazol-3-yl)-3H-benzoimidazol-5-yl]-phenyl}-methanol]
6 | > 3 | O=C(Oc1cc(-c2nc3ccccc3[nH]2)[nH]n1)c1c(F)c(F)c(F)c(F)c1F [Example 220, 2,3,4,5,6-Pentafluoro-benzoic acid 5-(1H-benzoimidazol-2-yl)-1H-pyrazol-3-yl ester]
7 | > 3 | COc1ccc(C(=O)COc2cc(-c3nc4ccccc4[nH]3)[nH]n2)cc1 [Example 212, 2-[5-(1H-Benzoimidazol-2-yl)-1H-pyrazol-3-yloxy]-1-(4-methoxy-phenyl)-ethanone]
8 | 0.3 to 3 | Cc1cccc(-c2ccc3nc(-c4[nH]nc5ccccc45)[nH]c3c2)c1 [Example 108, 3-(6-m-Tolyl-1H-benzoimidazol-2-yl)-2H-indazole]
9 | > 3 | Cc1ccc(C(=O)COc2cc(-c3nc4ccccc4[nH]3)[nH]n2)cc1 [Example 198, 2-[5-(1H-Benzoimidazol-2-yl)-1H-pyrazol-3-yloxy]-1-p-tolyl-ethanone]
10 | < 0.3 | COc1ccc(CNC(=O)c2ccc3[nH]c(-c4n[nH]c5ccccc45)nc3c2)cn1 [Example 180, 2-(1H-Indazol-3-yl)-1H-benzoimidazole-5-carboxylic acid (6-methoxy-pyridin-3-ylmethyl)-amide]
11 | > 3 | FC(F)(F)c1ccc(COc2cc(-c3nc4ccccc4[nH]3)[nH]n2)cc1 [Example 187, 2-[5-(4-Trifluoromethyl-benzyloxy)-2H-pyrazol-3-yl]-1H-benzoimidazole]
12 | > 3 | O=C(COc1cc(-c2nc3ccccc3[nH]2)[nH]n1)C1CC1 [Example 213, 2-[5-(1H-Benzoimidazol-2-yl)-1H-pyrazol-3-yloxy]-1-cyclopropyl-ethanone]
13 | > 3 | O=C(NCc1cccc(C(F)(F)F)c1)c1ccc2[nH]c(-c3n[nH]c4ccccc34)nc2c1 [Example 61, 2-(1H-Indazol-3-yl)-1H-benzoimidazole-5-carboxylic acid 3-trifluoromethyl-benzylamide]
14 | > 3 | c1ccc2[nH]c(-c3cc(OCCN4CCCCC4)n[nH]3)nc2c1 [Example 196, 2-[5-(2-Piperidin-1-yl-ethoxy)-2H-pyrazol-3-yl]-1H-benzoimidazole]

Further lines, the compound ahead of its results:

Row | SMILES | IC50 [µM]
15 | CC(C)NC(=O)c1ccc2[nH]c(-c3n[nH]c4ccccc34)nc2c1 [Example 149, 2-(1H-Indazol-3-yl)-1H-benzoimidazole-5-carboxylic acid isopropylamide] | 0.3 to 3
16 | O=C(NCc1ccccc1F)c1ccc2[nH]c(-c3n[nH]c4ccccc34)nc2c1 [Example 165, 2-(1H-Indazol-3-yl)-1H-benzoimidazole-5-carboxylic acid 2-fluoro-benzylamide] | > 3
17 | Cc1ccccc1CNC(=O)c1ccc2[nH]c(-c3n[nH]c4ccccc34)nc2c1 [Example 45, 2-(1H-Indazol-3-yl)-1H-benzoimidazole-5-carboxylic acid 2-methyl-benzylamide] | < 0.3
18 | CC(C)c1ccc(CNC(=O)c2ccc3[nH]c(-c4n[nH]c5ccccc45)nc3c2)cc1 [Example 52, 2-(1H-Indazol-3-yl)-1H-benzoimidazole-5-carboxylic acid 4-isopropyl-benzylamide] | 0.3 to 3
19 | O=C(NCc1ccc(F)cc1F)c1ccc2[nH]c(-c3n[nH]c4ccccc34)nc2c1 [Example 155, 2-(1H-Indazol-3-yl)-1H-benzoimidazole-5-carboxylic acid 2,4-difluoro-benzylamide] | 0.3 to 3
20 | O=C(NCc1c(F)cc(Cl)cc1Cl)c1ccc2[nH]c(-c3n[nH]c4ccccc34)nc2c1 [Example 177, 2-(1H-Indazol-3-yl)-1H-benzoimidazole-5-carboxylic acid (2,4-dichloro-6-fluoro-benzyl)amide] | < 0.3
21 | O=C(NCc1ccc([N+](=O)[O-])cc1)c1ccc2[nH]c(-c3n[nH]c4ccccc34)nc2c1 [Example 37, 2-(1H-Indazol-3-yl)-1H-benzoimidazole-5-carboxylic acid 4-nitro-benzylamide] | < 0.3
22 | O=C(NCc1cccc(Cl)c1)c1ccc2[nH]c(-c3n[nH]c4ccccc34)nc2c1 [Example 72, 2-(1H-Indazol-3-yl)-1H-benzoimidazole-5-carboxylic acid 3-chloro-benzylamide] | < 0.3
23 | CC(=O)c1cccc(-c2ccc3nc(-c4[nH]nc5ccccc45)[nH]c3c2)c1 [Example 129, 1-{3-[2-(2H-Indazol-3-yl)-3H-benzoimidazol-5-yl]-phenyl}-ethanone] | > 3
24 | O=C(NCc1ccc2c(c1)CCO2)c1cccc2nc(-c3n[nH]c4ccccc34)[nH]c12 [Example 87, 2-(1H-Indazol-3-yl)-3H-benzoimidazole-4-carboxylic acid (2,3-dihydro-benzofuran-5-ylmethyl)-amide] | > 3
25 | Clc1cccc(-c2ccc3nc(-c4[nH]nc5ccccc45)[nH]c3c2)c1 [Example 113, 3-[6-(3-Chloro-phenyl)-1H-benzoimidazol-2-yl]-2H-indazole] | 0.3 to 3
26 | CC(=O)c1ccc(-c2ccc3nc(-c4[nH]nc5ccccc45)[nH]c3c2)cc1 [Example 125, 1-{4-[2-(2H-Indazol-3-yl)-3H-benzoimidazol-5-yl]-phenyl}-ethanone] | > 3
27 | CNC(=O)c1ccc2[nH]c(-c3n[nH]c4ccccc34)nc2c1 [Example 148, 2-(1H-Indazol-3-yl)-1H-benzoimidazole-5-carboxylic acid methylamide] | 0.3 to 3
28 | O=C(NCc1ccc2c(c1)OCO2)c1ccc2[nH]c(-c3n[nH]c4ccccc34)nc2c1 [Example 41, 2-(1H-Indazol-3-yl)-1H-benzoimidazole-5-carboxylic acid (benzo[1,3]dioxole-5-ylmethyl)-amide] | 0.3 to 3
29 | COc1cccc(-c2ccc3nc(-c4[nH]nc5ccccc45)[nH]c3c2)c1 [Example 114, 3-[6-(3-Methoxy-phenyl)-1H-benzoimidazol-2-yl]-2H-indazole] | 0.3 to 3
30 | O=C(NCc1ccc(Cl)nc1)c1cccc2nc(-c3n[nH]c4ccccc34)[nH]c12 [Example 86, 2-(1H-Indazol-3-yl)-3H-benzoimidazole-4-carboxylic acid (6-chloro-pyridin-3-ylmethyl)-amide] | > 3
31 | O=C(NCc1csc2ccccc12)c1cccc2nc(-c3n[nH]c4ccccc34)[nH]c12 [Example 83, 2-(1H-Indazol-3-yl)-3H-benzoimidazole-4-carboxylic acid (benzo[b]thiophen-3-ylmethyl)-amide] | > 3
32 | c1ccc2c(c1)Sc1cccc(-c3ccc4nc(-c5n[nH]c6ccccc56)[nH]c4c3)c1S2 [Example 105, 3-(6-Thianthren-1-yl-1H-benzoimidazol-2-yl)-2H-indazole] | > 3
33 | c1ccc2c(-c3nc4ccc(-c5csc6ccccc56)cc4[nH]3)[nH]nc2c1 [Example 132, 3-(6-Benzo[b]thiophen-3-yl-1H-benzoimidazol-2-yl)-2H-indazole] | > 3
34 | Clc1ccc(/C=C/c2ccc3nc(-c4[nH]nc5ccccc45)[nH]c3c2)cc1 [Example 139, 3-{6-[2-(4-Chloro-phenyl)-vinyl]-1H benzoimidazol-2-yl}-2H-indazole] | > 3
35 | O=C(NCc1ccc(-c2ccccc2Cl)cc1)c1ccc2[nH]c(-c3n[nH]c4ccccc34)nc2c1 [Example 171, 2-(1H-Indazol-3-yl)-1H-benzoimidazole-5-carboxylic acid (2′-chloro-biphenyl-4-ylmethyl)-amide] | 0.3 to 3
36 | Cc1cc(C)cc(CNC(=O)c2ccc3[nH]c(-c4n[nH]c5ccccc45)nc3c2)c1 [Example 69, 2-(1H-Indazol-3-yl)-1H-benzoimidazole-5-carboxylic acid 3,5-dimethyl-benzylamide] | 0.3 to 3
